Source: patent publication US11432573B2, “Food and beverage sweeteners” (priority 2017, dated 2022)

Test: Serum glucose levels in subjects after consuming coffee with sweetener blend or sucrose (Example 1)
Type: in vivo, human
Conditions: for serum glucose (Average): average across three subjects
Description: The following Example summarizes the impact of the above-listed formulas on serum glucose levels within three different subjects. Specifically, 6.0 grams of a blend of Formula-1 through Formula-5 (above) were stirred vigorously into one shot of regular caffeinated expresso coffee that was topped to 350 milliliters of warm water. The coffee was then completely consumed by each subject within 5 minutes, following a time=0 measurement of each subject's serum glucose levels. Each subject's serum glucose levels were subsequently measured at 15 minute intervals, up to 100 minutes following the time=0 measurement. The impact of traditional sucrose on each of the subject's serum glucose levels was also measured, so that the impact of the test sweetener composition on serum glucose levels could be measured relative to such impact by traditional sucrose. The following Tables summarize the serum glucose level measurements observed with each subject (Table-1, Table-2, and Table-3), along with the average across each of the three subjects (Table-4)(the data represent mmol/L serum glucose).

In the case of `OC[C@H]1O[C@@](CO)(O[C@H]2O[C@H](CO)[C@@H](O)[C@H](O)[C@H]2O)[C@@H](O)[C@@H]1O` [Sucrose, sucrose], the serum glucose (Subject 1, T = 0 (before consumption)) was 5.20 mmol/L, the serum glucose (Subject 1, T = 15 minutes) was 6.20 mmol/L and the serum glucose (Subject 1, T = 30 minutes) was 7.60 mmol/L. For the same molecule, the serum glucose (Subject 1, T = 45 minutes) was 7.60 mmol/L, the serum glucose (Subject 1, T = 60 minutes) was 7.00 mmol/L and the serum glucose (Subject 1, T = 75 minutes) was 6.20 mmol/L. It also gave a serum glucose (Subject 1, T = 100 minutes) of 6.00 mmol/L, a serum glucose (Subject 2, T = 0 (before consumption)) of 5.10 mmol/L and a serum glucose (Subject 2, T = 15 minutes) of 6.00 mmol/L. For the same molecule, the serum glucose (Subject 2, T = 30 minutes) was 7.50 mmol/L, the serum glucose (Subject 2, T = 45 minutes) was 7.40 mmol/L and the serum glucose (Subject 2, T = 60 minutes) was 7.00 mmol/L. It also gave a serum glucose (Subject 2, T = 75 minutes) of 6.00 mmol/L, a serum glucose (Subject 2, T = 100 minutes) of 5.60 mmol/L and a serum glucose (Subject 3, T = 0 (before consumption)) of 5.20 mmol/L. The serum glucose (Subject 3, T = 15 minutes) was 5.60 mmol/L, the serum glucose (Subject 3, T = 30 minutes) was 7.70 mmol/L and the serum glucose (Subject 3, T = 45 minutes) was 7.80 mmol/L. It also gave a serum glucose (Subject 3, T = 60 minutes) of 7.40 mmol/L, a serum glucose (Subject 3, T = 75 minutes) of 6.40 mmol/L and a serum glucose (Subject 3, T = 100 minutes) of 6.20 mmol/L. For the same molecule, the “serum glucose (Average)” value (T = 0 (before consumption)) was 5.17 mmol/L, the “serum glucose (Average)” value (T = 15 minutes) was 5.93 mmol/L and the “serum glucose (Average)” value (T = 30 minutes) was 7.60 mmol/L. For the same molecule, the “serum glucose (Average)” value (T = 45 minutes) was 7.60 mmol/L, the “serum glucose (Average)” value (T = 60 minutes) was 7.13 mmol/L and the “serum glucose (Average)” value (T = 75 minutes) was 6.20 mmol/L. For the same molecule, the “serum glucose (Average)” value (T = 100 minutes) was 5.93 mmol/L.
